Values quoted from earlier work as cited in paper PMC3350394, “Kinetic analysis and test-retest variability of the radioligand [^11C](R)-PK11195 binding to TSPO in the human brain - a PET study in control subjects” (EJNMMI Research, 2012).

Experiments:
[1] = test system: human serum albumin (HSA); set-up: method as in PMID 12623120; details: relative to AGP; cited from earlier work
[2] = test system: alfa1-acid glycoprotein (AGP); set-up: method as in PMID 12623120; details: cited from earlier work
TSPO [3] = test system: TSPO; set-up: method as in PMID 15103694; details: unlabelled displacer; cited from earlier work
TSPO [4] = test system: TSPO; set-up: method as in PMID 19948230; details: up; cited from earlier work
[5] = set-up: method as in PMID 2528555; details: cited from earlier work
[6] = set-up: method as in PMID 2528555; details: cited from earlier work; remark: listed apart in the source
[7] = same experimental setting and analytical approach; cited from earlier work
dopamine D2/3 receptor = biological target: dopamine D2/3 receptor; set-up: method as in PMID 2528555, PMID 8122313; details: approximately; read-out: affinity; cited from earlier work

Question: What does the source list for `CCC(C)N(C)C(=O)c1cc2ccccc2c(-c2ccccc2Cl)n1` (stereo not drawn) [[^3 H]PK11195, 1-(2-chlorophenyl)-N-methyl-N-(1-methylpropyl)-3-isoquinoline carboxamide]?
Answer: binding to HSA [1]: to a lesser extent; binding to AGP [2]: high affinity

Question: For `CCC(C)N(C)C(=O)c1cc2ccccc2c(-c2ccccc2Cl)n1` (stereo not drawn) [PK11195, 1-(2-chlorophenyl)-N-methyl-N-(1-methylpropyl)-3-isoquinoline carboxamide], which “displacement of the total [11C]DAA1106 binding” value (TSPO [3]) is on record?
Answer: about 70%

Question: Which “displacement of [11C](R)-PK11195 binding” value (TSPO [4]) does the source give for `COc1ccccc1CN(C(C)=O)c1cnccc1Oc1ccccc1` [PBR28] here?
Answer: 40% to 60

Question: With `CCN1CCC[C@H]1CNC(=O)c1c(O)c(Cl)cc(Cl)c1O[11CH3]` (racemic) [[^11C]raclopride] as the compound, how does the plasma protein binding [5] read?
Answer: 96%

Question: And the first pass extraction [6]?
Answer: about 20%

Question: What about the K1 [7] of the same compound?
Answer: 0.16

Question: With `CCN1CCC[C@H]1CNC(=O)c1cc(Br)cc(OC)c1O[11CH3]` [[^11C]FLB-457] as the compound, how does the K1 [7] read?
Answer: 0.42

Question: Which Kd (dopamine D2/3 receptor) does the source give for `CCN1CCC[C@H]1CNC(=O)c1c(O)c(Cl)cc(Cl)c1OC` (racemic) [[^11C]raclopride] here?
Answer: 1 to 3 nM
